Test results taken from patent US20230031406A1, “COMPOUNDS AND COMPOSITIONS FOR TREATING CONDITIONS ASSOCIATED WITH NLRP ACTIVITY” (Novartis AG, priority 2018, published 2023).
Like-named read-outs stand apart in the source and are kept apart here. Blank lines part the entries; values can stand above or below the molecule they belong to.

System: PMA-differentiated THP-1 cells
Test: IL-1β production in PMA-differentiated THP-1 cells stimulated with gramicidin (hTHP-1 assay containing 2% fetal bovine serum; Procedures 1 and 2)
Type: cell-based, human
Details: 2% fetal bovine serum
In short: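 PMA 20 ng/ml 16-18 h → trypsinise → 50,000 cells/well, RPMI/2% FBS; cpd 1 h (11-pt, 100–0.0017 μM; DMSO 0.37%); gramicidin 5 μM, 2 h; spin; supernatant IL-1β via HTRF.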

[1] = Homo sapiens, THP-1, Table B1, class symbols, read-out: Average IC50 of compounds in hTHP-1 assay: hTHP-1 IC50
[2] = Homo sapiens, THP-1, Table B3, hTHP-1 assay, class symbols, read-out: IC50
[3] = Homo sapiens, THP-1, Table B2, class symbols, read-out: hTHP-1 IC50
[4] = Table B3, hTHP-1 assay, class symbols, read-out: IC50
[5] = Table B2, class symbols, read-out: hTHP-1 IC50
[6] = Homo sapiens, THP-1, Table B1, numeric bounds, read-out: Average IC50 of compounds in hTHP-1 assay: hTHP-1 IC50
[7] = Table B1, class symbols, read-out: Average IC50 of compounds in hTHP-1 assay: hTHP-1 IC50

SMILES: CC(C)n1ccc(S(N)(=O)=NC(=O)Nc2c3c(nc4c2CCC42CC2)CCC3)n1 (centres unmarked) [Compound 172, 1-isopropyl-N′-((1′,5′,6′,7′-tetrahydro-2′H-spiro[cyclopropane-1,3′-dicyclopenta[b,e]pyridin]-8′-yl)carbamoyl)-1H-pyrazole-3-sulfonimidamide]
IC50 [1]: 200 to 1000 nM

SMILES: Cc1nc(C(C)(C)O)ccc1S(N)(=O)=NC(=O)Nc1c2c(nc3c1CCC3)CCC2 (centres unmarked) [Compound 157, N′-((1,2,3,5,6,7-hexahydrodicyclopenta[b,e]pyridin-8-yl)carbamoyl)-6-(2-hydroxypropan-2-yl)-2-methylpyridine-3-sulfonimidamide]
IC50 [1]: 5000 to 30000 nM

SMILES: Cc1c(C2(C)CC2)nc2c(c1NC(=O)N=S(N)(=O)c1cc(C(C)(C)O)cs1)CCC2 (single isomer, unassigned) [Compound 669b, (R) or (S)-4-(2-Hydroxypropan-2-yl)-N′-((3-methyl-2-(1-methylcyclopropyl)-6,7-dihydro-5H-cyclopenta[b]pyridin-4-yl)carbamoyl) thiophene-2-sulfonimidamide]
IC50 [3]: 5000 to 30000 nM

SMILES: CC(C)c1cc(C#N)nc(C(C)C)c1NC(=O)NS(=N)(=O)c1sc(C(C)(C)O)nc1CO (centres unmarked) [Compound 696, N-((6-cyano-2,4-diisopropylpyridin-3-yl)carbamoyl)-4-(hydroxymethyl)-2-(2-hydroxypropan-2-yl)thiazole-5-sulfonimidamide]
IC50 [3]: 5000 to 30000 nM

SMILES: Cc1c(C(C)C)nc2c(c1NC(=O)N=S(N)(=O)c1cnc(C(C)(C)O)s1)CCC2 (centres unmarked) [Compound 650, 2-(2-Hydroxypropan-2-yl)-N′-((2-isopropyl-3-methyl-6,7-dihydro-5H-cyclopenta[b]pyridin-4-yl)carbamoyl)thiazole-5-sulfonimidamide]
IC50 [3]: 200 to 1000 nM

SMILES: Cc1nc(C(C)(C)O)ccc1S(N)(=O)=NC(=O)Nc1c2c(nc3c1CCC3)CCC2 (single isomer, unassigned) [Compound 157a, (S) or (R)-N′-((1,2,3,5,6,7-hexahydrodicyclo-penta[b,e]pyridin-8-yl)carbamoyl)-6-(2-hydroxypropan-2-yl)-2-methylpyridine-3-sulfonimidamide]
IC50 [6]: > 30000 nM

SMILES: CCc1c(C(F)(F)F)nc2c(c1NC(=O)N=S(N)(=O)c1cc(C(C)(C)O)cs1)CCC2 (centres unmarked) [Compound 609, N′-((3-ethyl-2-(trifluoromethyl)-6,7-dihydro-5H-cyclopenta[b]pyridin-4-yl)carbamoyl)-4-(2-hydroxypropan-2-yl)thiophene-2-sulfonimidamide]
IC50 [3]: 1000 to 5000 nM

SMILES: CC1CCc2c1nc1c(c2NC(=O)N=S(N)(=O)c2cc(C(C)(C)O)cs2)CCC1 (single isomer, unassigned) [Compound 141aa, (R,R) or (R,S)-4-(2-hydroxypropan-2-yl)-N′-((3-methyl-1,2,3,5,6,7-hexahy-drodicyclopenta[b,e]pyridin-8-yl)carbamoyl)thiophene-2-sulfonimidamide]
IC50 [7]: 8 to 40 nM

SMILES: CC1CCc2c1nc1c(c2NC(=O)N=S(N)(=O)c2cc(C(C)(C)O)n(-c3ccccc3)n2)CCC1 (single isomer, unassigned) [Compound 664a, (S) or (R)-5-(2-Hydroxypropan-2-yl)-N′-((3-methyl-1,2,3,5,6,7-hexahydrodicyclopenta [b,e]pyridin-8-yl)carbamoyl)-1-phenyl)-1-pyrazole-3-sulfonimidamide]
IC50 (Homo sapiens, THP-1, Table B2, numeric bounds, read-out: hTHP-1 IC50): > 30000 nM

SMILES: CC1CCc2c1nc1c(c2NC(=O)N=S(N)(=O)c2sc(C(C)(C)O)cc2F)CCC1 (single isomer, unassigned) [Compound 103ba, (R,R) or (R,S)-3-fluoro-5-(2-hydroxypropan-2-yl)-N′-((3-methyl-1,2,3,5,6,7-hexahydrodicyclo-penta[b,e]pyridin-8-yl)carbamoyl)thiophene-2-sulfonimidamide]
IC50 [7]: 8 to 40 nM

SMILES: CC(C)(O)c1sc(S(N)(=O)=NC(=O)Nc2c3c(nc4c2CCC42CC2)CCC3)cc1F (single isomer, unassigned) [Compound 614b, (S) or (R)-4-Fluoro-5-(2-hydroxypropan-2-yl)-N′-((1′,5′,6′,7′-tetrahydro-2′H-spiro[cyclopropane-1,3′-dicyclopenta[b,e]pyridin]-8′-yl)carbamoyl) thiophene-2-sulfonimidamide]
IC50 [5]: 1000 to 5000 nM

SMILES: CC1(C)Cc2nc3c(c(NC(=O)N=S(N)(=O)c4cnc(C(C)(C)O)s4)c2C1)CCC3 (single isomer, unassigned) [Compound 147a, (S) or (R)-N′-((2,2-dimethyl-1,2,3,5,6,7-hexahydrodicyclo-penta[b,e]pyridin-8-yl)carbamoyl)-2-(2-hydroxypropan-2-yl)thiazole-5-sulfonimidamide]
IC50 [6]: > 30000 nM

SMILES: CC(C)n1ccc(S(N)(=O)=NC(=O)Nc2c3c(nc4c2CCC4(C)C)CCC3)n1 (centres unmarked) [Compound 126, N′-((3,3-dimethyl-1,2,3,5,6,7-hexahydrodicyclopenta[b,e]pyridin-8-yl)carbamoyl)-1-isopropyl-1H-pyrazole-3-sulfonimidamide]
IC50 [1]: 40 to 200 nM

More lines, now with the values ahead:

IC50 (Homo sapiens, THP-1, Table B4, class symbols, read-out: hTHP-1 IC50): 1000 to 5000 nM
SMILES: CC1CCc2c1nc1c(c2NC(=O)N=S(N)(=O)c2cnc(C(O)CO)s2)CCC1 (centres unmarked) [Example 752, 2-(1,2-Dihydroxyethyl)-N′-((3-methyl-1,2,3,5,6,7-hexahydrodicyclopenta[b,e]pyridin-8-yl)carbamoyl) thiazole-5-sulfonimidamide]

IC50 [2]: 200 to 1000 nM
SMILES: CC(C)(O)c1cc(F)c(S(N)(=O)=NC(=O)Nc2c3c(nc(C(F)(F)F)c2C2CC2)CCC3)s1 (centres unmarked) [Example 610]

IC50 (Table B4, class symbols, read-out: hTHP-1 IC50): 5000 to 30000 nM
SMILES: NS(=O)(=NC(=O)Nc1c2c(nc(C3CC3)c1C1CC1)CCC2)c1nn(C(F)F)cc1F (single isomer, unassigned) [Example 764, (S) or (R)-N′-((2,3-dicyclopropyl-6,7-dihydro-5H-cyclopenta[b]pyridin-4-yl)carbamoyl)-1-(difluoromethyl)-4-fluoro-1H-pyrazole-3-sulfonimidamide]

IC50 [4]: 5000 to 30000 nM
SMILES: CCn1ccc(S(N)(=O)=NC(=O)Nc2c3c(nc4c2CCC42CC2)CCC3)n1 (single isomer, unassigned) [Example 688, (S) or (R)-1-Ethyl-N′-((1′,5′,6′,7′-tetrahydro-2′H-spiro[cyclopropane-1,3′-dicyclopenta[b,e]pyridin]-8′-yl)carbamoyl)-1H-pyrazole-3-sulfonimidamide]

IC50 [5]: 40 to 200 nM
SMILES: CCn1ccc(S(N)(=O)=NC(=O)Nc2c3c(nc4c2CCC4(C)C)CCC3)n1 (single isomer, unassigned) [Compound 697b, (R) or (S)-N′-((3,3-dimethyl-1,2,3,5,6,7-hexahydrodicyclopenta [b,e]pyridin-8-yl)carbamoyl)-1-ethyl-1H-pyrazole-3-sulfonimidamide]

IC50 [2]: 1000 to 5000 nM
SMILES: CC1(C)CCc2c1nc1c(c2NC(=O)N=S(N)(=O)c2cnn3c2OC[C@H](O)C3)CCC1 (stereo partly drawn) [Example 603, (6R)-N′-((3,3-dimethyl-1,2,3,5,6,7-hexahydrodicyclopenta[b,e]pyridin-8-yl)carbamoyl)-6-hydroxy-6,7-dihydro-5H-pyrazolo[5,1-b][1,3]oxazine-3-sulfonimidamide]

IC50 [4]: 200 to 1000 nM
SMILES: NS(=O)(=NC(=O)Nc1c2c(nc(C(F)(F)F)c1C1CC1)CCC2)c1nn(C(F)F)cc1F (centres unmarked) [Example 615, N′-((3-cyclopropyl-2-(trifluoromethyl)-6,7-dihydro-5H-cyclopenta[b]pyridin-4-yl)carbamoyl)-1-(difluoromethyl)-4-fluoro-1H-pyrazole-3-sulfonimidamide]
